Test system: formalin induced pain response
Test: Formalin induced pain or paw oedema in mice
Type: in vivo
Conditions: 0.1 mg/kg; NMRI female mice, 20 μl 1% formalin into left hind paw
Experimental: Values for in vivo inhibition of formalin induced pain or oedema for the compounds of the present invention were assessed in mice essentially by the method of Wheeler-Aceto and Cowan (Agents Action 1991, 34, 265-269).
About 20 g NMRI female mice were injected 20 μl 1% formalin into the left hind paw. The animals were then placed on a heated (31° C.) table, and the pain response was scored. After 1 h they were killed and bled. Left and right hind paws were removed and the weight difference between the paws was used as indication of the oedema response of the formalin injected paw.
In the case of `Cl.OC1(c2ccc(Cl)cc2)CCN(CCCN2c3ccccc3CCc3ccccc32)CC1` [Example 2, 4-(4-Chlorophenyl)-1-(3-(10,11-dihydro-5H-dibenz[b,f]azepin-5-yl)-1-propyl)piperidin-4-ol Hydrochloride], the “% Pain inhibition (inhibition of formalin induced pain response)” value (“% Pain inhibition” below) is reported as 13%.
In the case of `Cl.NC(=O)C1CCCN(CCCN2c3ccccc3CCc3ccccc32)C1` (stereo not shown) [Example 4, 1-(3-(10,11-Dihydro-5H-dibenz[b,f]azepin-5-yl)-1-propyl)-3-piperidinecarboxamide Hydrochloride], the “% Pain inhibition” value is reported as 47%.
For `Cl.O=C(O)C1CCCCN1CCCN1c2ccccc2CCc2ccccc21` (stereo not shown) [Example 5, 1-(3-(10,11-Dihydro-5H-dibenz[b,f]azepin-5-yl)-1-propyl)-2-piperidinecarboxylic Acid Hydrochloride], the “% Pain inhibition” value was 36%.
In the case of `Cl.O=C(O)C1CN(CCCN2c3ccccc3CCc3ccccc32)CCO1` (stereo not shown) [Example 8, 4-(3-(10,11-Dihydro-5H-dibenz[b,f]azepin-5-yl)-1-propyl)-2-morpholinecarboxylic Acid Hydrochloride], the “% Pain inhibition” value is reported as 34%.
In the case of `Cl.O=C(O)C1Cc2ccccc2CN1CCCN1c2ccccc2CCc2ccccc21` (stereo not shown) [Example 9, 2-(3-(10,11-Dihydro-5H-dibenz[b,f]azepin-5-yl)-1-propyl)-1,2,3,4-tetrahydro-3-isoquinolinecarboxylic Acid Hydrochloride], the “% Pain inhibition” value is reported as 29%.

Test system: not given
Test: not given
Conditions: not given
Compound `Cl.O=C(O)C1CCN(CCCN2c3ccccc3CCc3ccccc32)CC1` has a melting point of 195 to 197 °C.
In the case of `Cl.O=C(O)CC1CCN(CCCN2c3ccccc3CCc3ccccc32)CC1`, the melting point is reported as 185 to 188 °C.
Work on `Cl.O=C(O)C1CCN(CCC=C2c3ccccc3CCc3ccccc32)CC1` yielded a melting point of 224 to 226 °C.
`Cl.NC(=O)[C@@H]1CCCN(CCC=C2c3ccccc3CCc3ccccc32)C1` gave a melting point of over 250 °C.
In the case of `Cl.O=C(O)C1CCN(CCCN2c3ccccc3Oc3ccccc32)CC1`, the melting point is reported as 196 to 198 °C.
In the case of `Cl.O=C(O)CC1CCCN(CCCN2c3ccccc3CCc3ccccc32)C1` (stereo not shown), the melting point is reported as 233 to 235 °C.
For `Cl.O=C(O)C1CCN(CCCN2c3cc(Cl)ccc3CCc3ccc(Cl)cc32)CC1`, the melting point was 237 to 239 °C.
Work on `Cc1ccc2c(c1)C(=CCCN1CCC(C(=O)O)CC1)c1ccccc1CC2.Cl` yielded a melting point of over 250 °C.
`Cl.OCC1CCCN(CCCN2c3ccccc3CCc3ccccc32)C1` (stereo not shown) showed a melting point of 145 to 147 °C.
Compound `CC1C(C(=O)O)CCCN1CCCN1c2ccccc2CCc2ccccc21.Cl` (stereo not shown) (hydrate or solvate) has a melting point of 169 to 170 °C.
Compound `Cl.O=C(O)C1CCN(CCCN2c3ccc(Br)cc3CCc3cc(Br)ccc32)CC1` (hydrate or solvate) has a melting point of 165 to 166 °C.
With `O=C([O-])C1CN(CCCN2c3ccccc3CCc3ccccc32)CCN1.[K+]` (stereo not shown) (hydrate or solvate) the melting point was 151 to 155 °C.
`Cl.O=C(O)C1CCCCN1CCCN1c2ccccc2CCc2ccccc21` (stereo not shown) (hydrate or solvate) [Example 5, 1-(3-(10,11-Dihydro-5H-dibenz[b,f]azepin-5-yl)-1-propyl)-2-piperidinecarboxylic Acid Hydrochloride] showed a melting point of 122 to 126 °C.
In the case of `Cl.O=C(O)C1CN(CCCN2c3ccccc3CCc3ccccc32)CCO1` (stereo not shown) (hydrate or solvate) [Example 8, 4-(3-(10,11-Dihydro-5H-dibenz[b,f]azepin-5-yl)-1-propyl)-2-morpholinecarboxylic Acid Hydrochloride], the melting point is reported as 196 to 199 °C.
For `Cl.O=C(O)C1Cc2ccccc2CN1CCCN1c2ccccc2CCc2ccccc21` (stereo not shown) (hydrate or solvate) [Example 9, 2-(3-(10,11-Dihydro-5H-dibenz[b,f]azepin-5-yl)-1-propyl)-1,2,3,4-tetrahydro-3-isoquinolinecarboxylic Acid Hydrochloride], the melting point was 205 to 208 °C.
In the case of `Cc1ccc2c(c1)N(CCCN1CCC(C(=O)O)CC1)c1cc(C)ccc1CC2` (hydrate or solvate) [Example 24, 1-(3-(3,7-Dimethyl-10,11-dihydro-5H-dibenz[b,f]azepin-5-yl)-1-propyl)-4-piperidinecarboxylic Acid], the melting point is reported as 207 to 209 °C.
`CN(C)c1ccc2c(c1)N(CCCN1CCC(C(=O)O)CC1)c1ccccc1CC2` (hydrate or solvate) [Example 25, 1-(3-(3-Dimethylamino-10,11-dihydro-5H-dibenz[b,f]azepin-5-yl)-1-propyl)-4-piperidinecarboxylic Acid] gave a melting point of 198 to 202 °C.

From patent publication US6613791B1, “N-substituted azaheterocyclic carboxylic acids and their use” (Novo Nordisk A/S, priority 1994, dated 2003)
